Results from PMC11211886 (Frontiers in Pharmacology, 2024).
Several values for one entry are separate records, joined by “and”; a condition that tells them apart may be missing. Equal values may be shown once.

Tests used:
[1] = Plasma protein binding (RED), human plasma; type: in vitro ADME; details: mouse, rat, dog, monkey, human, plasma, pH 7.4; all species, all cases (data not shown); read-out: post-dialysis recovery
Description: (§1) The plate containing plasma and buffer was equilibrated for 6 h in a 37°C water shaking bath. After incubation, aliquots of buffer and plasma (20 µL) on both sides were collected and precipitated using organic solvents. […] The post-dialysis recovery of amdizalisib was also measured.

plasma proteins = experiment: Plasma protein binding (RED), human plasma; type: in vitro ADME
Description: as §1

CYP2C8 = target: T1, CYP2C8 (Homo sapiens, UniProt P10632); experiment: Reversible CYP inhibition in HLM, CYP2C8 (paclitaxel); type: in vitro ADME; details: for enzyme activity remaining: CYP2C8, HLM
T1 construct: tissue Life Technologies (Durham, NC, USA); host or cells: human liver microsomes
T1 sequence (P10632 1-490): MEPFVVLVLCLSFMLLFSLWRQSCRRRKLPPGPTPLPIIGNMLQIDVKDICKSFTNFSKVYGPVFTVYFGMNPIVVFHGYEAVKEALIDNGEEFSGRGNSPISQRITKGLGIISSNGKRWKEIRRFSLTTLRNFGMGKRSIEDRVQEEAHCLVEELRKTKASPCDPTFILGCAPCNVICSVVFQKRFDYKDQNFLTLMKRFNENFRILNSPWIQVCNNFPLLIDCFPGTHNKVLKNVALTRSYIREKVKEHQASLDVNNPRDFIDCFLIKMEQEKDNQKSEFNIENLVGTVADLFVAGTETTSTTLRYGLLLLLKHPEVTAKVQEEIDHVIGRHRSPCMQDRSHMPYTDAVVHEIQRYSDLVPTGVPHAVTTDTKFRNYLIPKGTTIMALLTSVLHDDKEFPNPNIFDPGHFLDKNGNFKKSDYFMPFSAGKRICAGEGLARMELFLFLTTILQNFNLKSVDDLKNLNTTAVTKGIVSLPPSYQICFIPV
Description: The markers used to determine the activities of CYP isoforms were phenacetin O-deethylation for CYP1A2 (probe substrate: 50 µM phenacetin), bupropion hydroxylation for CYP2B6 (probe substrate: 70 µM bupropion), paclitaxel 6α-hydroxylation for CYP2C8 (probe substrate: 10 µM paclitaxel), diclofenac 4′-hydroxylation for CYP2C9 (probe substrate: 5 µM diclofenac), S-(+)-mephenytoin 4′-hydroxylation for CYP2C19 (probe substrate: 20 µM S-(+)-mephenytoin), dextromethorphan O-demethylation for CYP2D6 (probe substrate: 6 µM dextromethorphan), chlorzoxazone 6′-hydroxylation for CYP2E1 (probe substrate: 70 µM chlorzoxazone), and testosterone 6β-hydroxylation and midazolam 1′-hydroxylation for CYP3A4/5 (probe substrate: 45 µM testosterone and 5 µM midazolam). […] Alpha-naphthoflavone (0.04 µM), 2-phenyl-2-(1-piperidinyl)propane (5 µM), quercetin (1 µM), sulfaphenazole (0.5 µM), ticlopidine (4 µM), quinidine (0.2 µM), diethyldithiocarbamate (20 µM), and ketoconazole (0.05 µM) were used as positive inhibitors of CYP1A2, 2B6, 2C8, 2C9, 2C19, 2D6, 2E1, and 3A4, respectively. The vehicle control was prepared in the same composition as inhibitor solutions but free of inhibitors. The concentrations of probe substrates were close to Km values that were determined in-house and within the range recommended by the FDA ([Huang et al., 2007]). Reaction mixtures were incubated at 37°C for 5, 20, or 30 min, depending on the probe substrates of CYP isoforms. The reactions were terminated by adding cold acetonitrile containing IS, and the terminated incubation mixtures were centrifuged at 3,000 g for 10 min before LC-MS/MS analysis.

[2] = Amdizalisib remaining/concentration after the last incubation in hepatocyte induction assays; details: for Amdizalisib concentration: CYP2C induction assay; for percentage of amdizalisib remaining: 5 h after last incubation
Description: […] […] […] Enzyme activity for each CYP isoform was reported as a fold change over vehicle control and the percent of positive control (detailed calculation in Supplementary 1.1). Hepatocytes were harvested with a lysis buffer from RNeasy 96 Kit (Qiagen Inc., Germantown, MD, USA) to isolate RNA, which was analyzed by real-time quantitative polymerase chain reaction (RT-PCR). […] Emax (the maximal observed induction) and EC50 (the concentration that supports half-maximal induction) were estimated by non-linear regression of fold increase in CYP mRNA expression versus concentration plots.

[3] = male, ICR, mouse, in vivo, iv
Description: All intravenous and oral dose formulations were analyzed by liquid chromatography coupled with tandem mass spectrometry (LC-MS/MS) to confirm test article concentration and determine formulation stability.
Animals had free access to food, and water was allowed ad libitum. […] The blood samples were collected with sodium heparin as an anticoagulant. The plasma samples were obtained from blood samples by centrifugation and stored at −80°C until analysis.
A total of eighteen mice were divided into intravenous (IV) and oral (PO) administration groups, with nine animals in each group. The mice were fasted overnight with free access to water before dosing. […] After the mice were anesthetized with isoflurane, approximately 100 μL of whole blood was collected through the retro-orbital sinus and transferred to a 1.5 mL tube containing sodium heparin. The gathered blood samples were kept on ice until centrifugation. Plasma samples were harvested by centrifugation at 1,500 g for 10 min at 4°C.
Pharmacokinetic parameters were calculated by a non-compartmental method using Thermo Kinetica® (Version 5.1 SP1, Thermo Electron Corporation, Philadelphia, Pennsylvania, United States). The area under the plasma concentration–time curve from time zero to the time of the last measurable sample (AUC0-t) or the plasma concentration–time curve from time zero to infinity (AUC0-inf) was calculated using the linear trapezoidal method.

Caco-2 cell monolayers = experiment: Caco-2 bidirectional transport permeability; type: in vitro ADME, human
Description: (§2) The passage number of cells used in this study was 39. Non-specific binding to the device surfaces and the aqueous solubility of test compounds were tested before the transport experiment. […] The integrity of the monolayer was estimated by measuring transepithelial electrical resistance (TEER). Only the monolayers with TEER over 150 Ω were used for the studies.

[4] = Caco-2 bidirectional transport permeability; type: in vitro ADME, human; details: human
Description: as §2

CYP2D6 = target: T2, CYP2D6 (Homo sapiens, UniProt P10635); experiment: Time-dependent CYP inhibition in HLM, CYP2D6; type: in vitro ADME; details: 10 μM, 30 min pre-incubation with NADPH
T2 construct: tissue Life Technologies (Durham, NC, USA); host or cells: human liver microsomes
Description: The procedure of time-dependent CYP inhibition was similar to that used for CYP reversible inhibition, as mentioned above, except that a pre-incubation step was added. […] Another appropriate volume of the NADPH-regenerating system and probe substrate were added to initiate the CYP isoform enzyme activity test step. For this step, the incubation period was 10 min, except for CYP2B6, CYP2C8, and CYP3A4/5 (probe substrate: midazolam), which was 3 min to make sure the reaction was under initial linear rates. After incubation for the designated time periods at 37°C, the ice-cold acetonitrile containing IS was added to quench the reaction. […] (Ainactivator/[…] represents the enzyme activity remaining due to the inhibition by the diluted inactivator in the enzyme activity test step, and (Ainactivator/[…] represents the remaining enzyme activity due to pre-incubation loss plus inhibition by the diluted inactivator in the enzyme activity test step.

T2 sequence (P10635 whole entry): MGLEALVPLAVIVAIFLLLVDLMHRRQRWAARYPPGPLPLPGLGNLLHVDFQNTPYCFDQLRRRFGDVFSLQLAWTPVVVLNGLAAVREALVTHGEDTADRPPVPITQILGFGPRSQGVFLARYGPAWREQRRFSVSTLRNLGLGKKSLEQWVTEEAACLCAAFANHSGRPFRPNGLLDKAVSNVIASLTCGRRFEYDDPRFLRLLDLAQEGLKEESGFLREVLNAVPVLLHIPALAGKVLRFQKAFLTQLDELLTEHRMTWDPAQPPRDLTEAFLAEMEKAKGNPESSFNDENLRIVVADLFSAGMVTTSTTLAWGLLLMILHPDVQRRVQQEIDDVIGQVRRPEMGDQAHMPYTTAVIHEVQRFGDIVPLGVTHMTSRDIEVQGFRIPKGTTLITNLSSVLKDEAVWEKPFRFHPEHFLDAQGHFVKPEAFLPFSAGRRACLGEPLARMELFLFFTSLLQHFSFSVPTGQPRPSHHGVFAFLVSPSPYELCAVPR

Question: For `C[C@H](Nc1ncnc(N)c1C#N)c1cc2ncc(Cl)n2nc1-c1ccccc1` [Amdizalisib], which recovery at 6 h [1] is on record?
Answer: The recovery at 6 h was over 90%.

Question: What about the “Binding fraction to plasma proteins, Human” value (“Binding fraction” for short) (plasma proteins; 0.1 µM) of the same compound?
Answer: The value was 94.0 ± 0.86%.

Question: And the “Binding fraction” value (plasma proteins; 1 µM)?
Answer: The value was 92.8 ± 0.54%.

Question: And the “Binding fraction” value (plasma proteins; 20 µM)?
Answer: Its value is 92.4 ± 0.15%.

Question: What about the “stability in plasma post-incubation” value (plasma proteins; all species, 37°C 6 h (data not shown)) of the same compound?
Answer: Its value is over 90%.

Question: What about the fraction unbound at 6 h (plasma proteins; plasma, pH 7.4, all species (mouse, rat, dog, monkey, human), 0.1–20 μM) of the same compound?
Answer: The fraction unbound at 6 h was about 0.1.

Question: And the enzyme activity remaining (CYP2C8; 0.08 μM)?
Answer: The enzyme activity remaining was 110% and 105%.

Question: What about the enzyme activity remaining (CYP2C8; 0.4 μM) of the same compound?
Answer: Its enzyme activity remaining is 105% and 109%.

Question: And the enzyme activity remaining (CYP2C8; 2 μM)?
Answer: Its enzyme activity remaining is 98.8% and 104%.

Question: And the enzyme activity remaining (CYP2C8; 10 μM)?
Answer: Its enzyme activity remaining is 67.3% and 76.5%.

Question: And the enzyme activity remaining (CYP2C8; 50 μM)?
Answer: The enzyme activity remaining was 38.0% and 39.6%.

Question: And the IC50 (CYP2C8; HLM, reversible, without pre-incubation)?
Answer: Its IC50 is 30.4 µM.

Question: What about the Amdizalisib concentration ([2]; nominal 3 µM, donor eight, 1h) of the same compound?
Answer: The Amdizalisib concentration was 3.57 ± 0.26 µM.

Question: And the Amdizalisib concentration ([2]; nominal 3 µM, donor four, 1h)?
Answer: Its Amdizalisib concentration is 3.38 ± 0.33 µM.

Question: And the Amdizalisib concentration ([2]; nominal 20 µM, donor eight, 1h)?
Answer: Its Amdizalisib concentration is 23.3 ± 0.27 µM.

Question: What about the Amdizalisib concentration ([2]; nominal 20 µM, donor eight, 4h) of the same compound?
Answer: Its Amdizalisib concentration is 21.2 ± 2.3 µM.

Question: What about the Amdizalisib concentration ([2]; nominal 20 µM, donor eight, 24h) of the same compound?
Answer: Its Amdizalisib concentration is 21.9 ± 0.27 µM.

Question: What about the “percentage of amdizalisib remaining” value ([2]; donor seven, 30 µM) of the same compound?
Answer: Its value is 105.3%.

Question: And the “percentage of amdizalisib remaining” value ([2]; donor two, 10 µM)?
Answer: Its value is 105.8%.

Question: What about the “percentage of amdizalisib remaining” value ([2]; donor two, 30 µM) of the same compound?
Answer: The value was 104.3%.

Question: What about the “CL as % of the hepatic blood flow” value [3] of the same compound?
Answer: The value was 16.3%.

Question: What about the Transporter substrate (Caco-2 cell monolayers) of the same compound?
Answer: The Transporter substrate was “Not a substrate of P-gp and BCRP”.

Question: And the Papp A→B at 30 min, 10 µM [4]?
Answer: Its Papp A→B at 30 min, 10 µM is 45.7 ×10⁻⁶ cm/s.

Question: What about the Papp A→B at 60 min, 5 µM [4] of the same compound?
Answer: The Papp A→B at 60 min, 5 µM was 38.5 ×10⁻⁶ cm/s.

Question: And the Papp A→B at 60 min, 10 µM [4]?
Answer: Its Papp A→B at 60 min, 10 µM is 39.9 ×10⁻⁶ cm/s.

Question: And the Papp A→B at 60 min, 20 µM [4]?
Answer: The Papp A→B at 60 min, 20 µM was 40.9 ×10⁻⁶ cm/s.

Question: And the Papp A→B at 60 min, 40 µM [4]?
Answer: The Papp A→B at 60 min, 40 µM was 36.3 ×10⁻⁶ cm/s.

Question: And the Papp A→B at 60 min, 60 µM [4]?
Answer: Its Papp A→B at 60 min, 60 µM is 42.2 ×10⁻⁶ cm/s.

Question: What about the Papp A→B at 90 min, 10 µM [4] of the same compound?
Answer: The Papp A→B at 90 min, 10 µM was 38.9 ×10⁻⁶ cm/s.

Question: What about the Papp A→B at 120 min, 10 µM [4] of the same compound?
Answer: Its Papp A→B at 120 min, 10 µM is 36.9 ×10⁻⁶ cm/s.

Question: What about the Papp A→B at 150 min, 10 µM [4] of the same compound?
Answer: The Papp A→B at 150 min, 10 µM was 37.1 ×10⁻⁶ cm/s.

Question: And the Papp B→A at 30 min, 10 µM [4]?
Answer: The Papp B→A at 30 min, 10 µM was 69.5 ×10⁻⁶ cm/s.

Question: And the Papp B→A at 60 min, 5 µM [4]?
Answer: Its Papp B→A at 60 min, 5 µM is 50.4 ×10⁻⁶ cm/s.

Question: What about the Papp B→A at 60 min, 20 µM [4] of the same compound?
Answer: The Papp B→A at 60 min, 20 µM was 52.3 ×10⁻⁶ cm/s.

Question: What about the Papp B→A at 60 min, 40 µM [4] of the same compound?
Answer: The Papp B→A at 60 min, 40 µM was 45.4 ×10⁻⁶ cm/s.

Question: And the Papp B→A at 60 min, 60 µM [4]?
Answer: Its Papp B→A at 60 min, 60 µM is 47.9 ×10⁻⁶ cm/s.

Question: What about the Papp B→A at 60 min, 80 µM [4] of the same compound?
Answer: Its Papp B→A at 60 min, 80 µM is 45.4 ×10⁻⁶ cm/s.

Question: What about the Papp B→A at 90 min, 10 µM [4] of the same compound?
Answer: The Papp B→A at 90 min, 10 µM was 57.1 ×10⁻⁶ cm/s.

Question: And the Papp B→A at 120 min, 10 µM [4]?
Answer: The Papp B→A at 120 min, 10 µM was 56 ×10⁻⁶ cm/s.

Question: And the Papp B→A at 150 min, 10 µM [4]?
Answer: Its Papp B→A at 150 min, 10 µM is 55.6 ×10⁻⁶ cm/s.

Question: What about the Papp A→B at 60 min, 80 µM ([4]; substrate 80 µM, 60 min) of the same compound?
Answer: Its Papp A→B at 60 min, 80 µM is 47.7 ×10⁻⁶ cm/s.

Question: What about the “activity loss of CYP2D6” value (CYP2D6) of the same compound?
Answer: The value was “less than 10%”.
